# Experimental data from patent US6809208B2, “3-Arylbenzofuranones with electron-withdrawing substituents as stabilizers” (Ciba Specialty Chemicals Corporation, priority 2000, dated 2004).
# Columns and labels:
# [1] = Stabilization of polyethylene during processing (Brabender plastograph); conditions: 0.05 part compound and 0.05 part Irganox 1010 per 100 parts polyethylene; 220° C., 50 rpm; without compound 9.7
# Procedure: 100 parts of polyethylene powder (Lupolen®5260 Z) are blended with 0.05 part of Irganox®1010 (pentaerythritol tetrakis[3-(3,5-di-tert-butyl-4-hydroxyphenyl)propionate]) and 0.05 part of a compound of Table 5 and the blend is kneaded in a Brabender plastograph at 220° C. and 50 rpm. During this time the kneading resistance is recorded continuously as torque. In the course of the kneading time the polymer begins to crosslink after prolonged constancy, as can be determined by the rapid increase in torque. The time taken until a marked increase in torque is shown in Table 5 as a measure of the stabilizing action. The longer this time is the better the stabilizing action.
# [2] = Stabilization of multiple-extruded polypropylene; conditions: 0.05% of compound; heating zones 260, 270, 280° C.; measured at 230° C./2.16 kg; without compound 17.5
# Procedure: 1.3 kg of polypropylene powder (Profax 6501), which has been prestabilized with 0.025% of Irganox®1076 (n-octadecyl 3-[3,5-di-tert-butyl-4-hydroxyphenyl]propionate) (melt index 3.2 g/10 min, measured at 230° C./2.16 kg) are blended with 0.05% of Irganox®1010 (pentaerythritol tetrakis[3-(3,5-di-tert-butyl-4-hydroxyphenyl)propionate]), 0.05% of calcium stearate, 0.03% of DHT 4A® (Kyowa Chemical Industry Co., Ltd., [Mg4.5Al2(OH)13CO3.3.5H2O]) and 0.05% of compound of Table 4. This blend is then extruded in an extruder having a cylinder diameter of 20 mm and a length of 400 mm at 100 rpm, the 3 heating zones being adjusted to the following temperatures: 260, 270, 280° C. The extrudate is cooled by drawing it through a water bath and is then granulated. This granulate is repeatedly extruded. After 3 extrusions, the melt index is measured (at 230° C./2.16 kg). A substantial increase in the melt index denotes pronounced chain degradation, i.e. poor stabilization.
# [3] = Light-colored SBR-vulcanisate (Example 23): ΔL-color after 3 weeks in diffuse daylight; conditions: 2.0 phr stabilizer; 3 weeks at room temperature in diffuse daylight; scale 0 to 100, 100 = no discoloration; without stabilizer 97
# Procedure: (§1) 100 parts by weight of Cariflex®S-1502 (styrene/butadiene rubber, Shell) are processed at 60° C., in a mixing mill, with 30.0 parts by weight of Kronos®CL 220 [titanium dioxide (pigment), Kronos Titan GmbH], 30.0 parts by weight of Aktisil®MM [kaolin (filler), Hoffmann Mineral, Neuburg/Donau], 5.0 parts by weight of Naftolen®N 401 [plasticiser, Metallgesellschaft], 10.0 parts by weight of zinc oxide [vulcanization activator], 2.0 parts by weight of stearic acid [vulcanization activator], 2.0 parts by weight of sulfur [vulcanizing agent], 1.0 part by weight of Vulkacit®MOZ [vulcanization accelerator, Bayer], 0.25 part by weight of Vulkacit®Thiuram [vulcanization accelerator, […], to form a homogeneous mixture, the vulcanization system (sulfur, Vulkacit®MOZ and Vulkacit®Thiuram) not being added until the end of the mixing process. The mixture is vulcanized in electrical vulcanization presses at 150° C. until T95 is reached in the rheometer curves to form elastomer plates 2 mm thick, 21 cm long and 8.0 cm wide.
# The remaining elastomer plates are stored for 3 weeks at room temperature in a standard laboratory atmosphere in diffuse daylight. The ΔL-color of those plates is then determined according to DIN 6167, which corresponds to a scale of from 0 to 100. No discoloration is indicated by a value of 100.
# [4] = Stabilization of multiple-extruded polypropylene at high temperature; parameters: unit not given here; conditions: measured at 230° C./2.16 kg
# Procedure: This blend is then extruded in an extruder having a cylinder diameter of 20 mm and a length of 400 mm at 100 rpm, the 3 heating zones being adjusted to the following temperatures: 280, 320, 340° C. The extrudate is cooled by drawing it through a water bath and is then granulated. This granulate is repeatedly extruded. […] A substantial increase in the melt index denotes pronounced chain degradation, i.e. poor stabilization.
# [5] = Prevention of migration of the oxidized developer in a color photographic material (three layer test elements, interlayer scavenger); conditions: 20 mg.m^−2 scavenger in interlayer; AGFA P-94 developing process; control without scavenger 0.293
# Procedure: To evaluate compounds of this invention with respect to their ability as interlayer scavengers for oxidized developing agent, three layer photographic test elements are prepared by providing layers in the order indicated on a polyethylene-coated paper support:
# (2) An interlayer containing:
# The test elements are imagewise exposed through a step wedge with density increment 0.15 and thereafter subjected to the AGFA P-94 developing process.
# Upon processing of the test elements, some oxidized developer is prone to migrate from the layer in which it is formed, for example the undermost, magenta-dye-providing layer, to the topmost layer containing the cyan-dye-forming coupler, thereby producing unwanted cyan dye. The amount of cyan dye that is generated depends on the ability of the interlayer to prevent the diffusion of oxidized developer.
# [6] = Stabilization of polycarbonate (oven ageing at 135° C., yellowness index and transmission); conditions: 0.01% stabilizer; for Yellowness index prior to oven-ageing: 2 mm plates, ASTM D 1925-70; for Transmission in % prior to oven-aging / Transmission in % after 2000 hours at 135° C.: at 450 nm; for Transmission in % after 2000 hours at 135° C.: without stabilizer 76.4; for Yellowness index after 2000 hours at 135° C.: circulating air oven, without stabilizer 25.0
# Procedure: This mixture is then extruded in a Schwabenthan extruder at a maximum of 280° C. The polymer string is then granulated. Using an injection moulding machine, plates having a layer thickness of 2 mm are then moulded from the granulate so obtained at a maximum of 300° C. […] Low YI values denote little discoloration, high YI values high discoloration of the patterns. […] The results are compiled in Tables 17 and 18.
# [7] = Light-colored SBR-vulcanisate, ozone atmosphere for 96 hours: crack formation; parameters: key: grade 0: Grade 0 denotes no cracks; grade 1 denotes narrow flat cracks; grade 2 denotes moderately broad, moderately deep cracks, clearly visible; grade 3 denotes broad and deep cracks; conditions: 2.0 phr stabilizer, ozone 50 pphm, 40° C., dynamic elongation, without stabilizer grade 2
# Procedure: as §1
# Some of the elastomer plates so obtained are tested for the action of ozone according to the ASTM standard D 3395-86 while subject to dynamic elongation. In this test the plates are first stored for 30 days in a standard atmosphere [23/50 SN-ISO 291]. Test specimens measuring 20 cm by 1 cm are then punched out and exposed to an ozone atmosphere for 96 hours (ozone content: 50 pphm; temperature: 40° C.; humidity: 50% rel.; elongation: 0 to 25%; elongation rate: 0.5 Hz; number of load cycles: approximately 173 000). The test plates are then assessed for crack formation according to ASTM D 3395-86. Grade 0 denotes no cracks; grade 1 denotes narrow flat cracks; grade 2 denotes moderately broad, moderately deep cracks, clearly visible; grade 3 denotes broad and deep cracks. The lower the grade number, the better the stabilization of the elastomer plates.
# [8] = Stabilisation of polybutylene terephthalate (impact strength in oven-ageing test at 160° C.); conditions: for Impact strength after 360 h: without stabilizer 26
# Procedure: 1.0 kg of a polybutylene terephthalate powder which has been dried for 10 hours at 100° C. in a vacuum drying oven (Crastin®S600, of Ciba Specialty Chemicals Inc.) is charged with the stabilizers listed in Table 20 and is mixed for 2 minutes in a Henschel mixer. This mixture is then extruded in a twin-screw extruder (type Berstorff) at a maximum of 250° C. and is then granulated. In an injection moulding apparatus, the granulate so obtained is moulded at a maximum of 260° C. to little rods 4×6 mm thick and 50 mm long. These little rods are then aged in a circulating air oven at 160° C. After 360 hours the impact strength of the rods is measured in KJ/m^2. The higher the values, the better the stabilization.
# [9] = Stabilization of polycarbonate (Weather-O-Meter exposure); conditions: 0.30% stabilizer; Weather-O-Meter WOM CI 65; without stabilizer 30.2
# Procedure: 1.0 kg of a polycarbonate powder which has been dried for 8 hours at 120° C. in a vacuum drying oven (Lexan®145, of General Electric) is charged with the stabilizers listed in Table 21 and is mixed for 2 minutes in a Henschel mixer. This mixture is then extruded in a Schwabenthan extruder at a maximum of 280° C. The polymer string is then granulated. Using an injection moulding machine, plates having a layer thickness of 2 mm are then moulded from the granulate so obtained at a maximum of 300° C. These plates are then irradiated in a Weather-O-Meter (WOM CI 65) for 2500 hours at a black standard temperature of 63° C., at a dry/wet cycle of 102/18 minutes and at an intensity of 0.35 W/m^2 at 340 nm. The yellowness index (YI) of these plates is then determined according to ASTM D 1925-70. Low YI values denote little discoloration, high YI values high discoloration of the plates. […]
compound,measurement,setting,value
"CC(C)(C)c1cc2c(c(C(C)(C)C)c1)OC(=O)C2c1ccc(F)cc1 (stereo not shown) [(105), 5,7-di-tert-butyl-3-(4-fluorophenyl)-3H-benzofuran-2-one]",melting point,,146 to 147 °C
same,Time until increase in torque,[1],27.0 min
same,Melt index after 3 extrusions,[2],4.7
"CC(C)(C)c1cc2c(c(C(C)(C)C)c1)OC(=O)C2c1ccc(C(F)(F)F)cc1 (stereo not shown) [Compound (101), 5,7-di-tert-butyl-3-(4-trifluoromethyl-phenyl)-3H-benzofuran-2-one]",ΔL-color according to DIN 6167,[3],95
same,melting point,,127 to 128 °C
same,Time until increase in torque,[1],27.5 min
same,Melt index after 5 extrusions,"[4]; 280° C., stabilizer 0.015% by weight",8.5
same,Melt index after 5 extrusions,"[4]; 320° C., stabilizer 0.015% by weight",19.6
same,Melt index after 5 extrusions,"[4]; 340° C., stabilizer 0.015% by weight",22.5
same,Cyan density at a magenta density of 1.5,[5],0.253
same,Melt index after 3 extrusions,[2],4.7
same,Yellowness index prior to oven-ageing,[6],3.4
same,Transmission in % prior to oven-aging,[6],85.8%
same,Transmission in % after 2000 hours at 135° C.,[6],81.3%
same,Yellowness index after 2000 hours at 135° C.,[6],16.4
same,Crack formation according to ASTM D 3395-86,[7],grade 1
"CC(C)(C)c1cc2c(c(C(C)(C)C)c1)OC(=O)C2c1ccc(C#N)cc1 (stereo not shown) [Compound (106), 5,7-di-tert-butyl-3-(4-cyanophenyl)-3H-benzofuran-2-one]",melting point,,136 to 137 °C
"COC(=O)c1ccc(C2C(=O)Oc3c2cc(C(C)(C)C)cc3C(C)(C)C)cc1 (stereo not shown) [Compound (109), 5,7-di-tert-butyl-3-(4-methoxycarbonylphenyl)-3H-benzofuran-2-one]",Time until increase in torque,[1],27.5 min
same,Cyan density at a magenta density of 1.5,[5],0.254
same,Melt index after 3 extrusions,[2],4.8
CCCCCCCCCCCCCCCCCCOC(=O)c1ccc(C2C(=O)Oc3c2cc(C(C)(C)C)cc3C(C)(C)C)cc1 (stereo not shown) [Compound (112)],Yellowness index prior to oven-ageing,[6],3.5
same,Transmission in % prior to oven-aging,[6],85.9%
same,Transmission in % after 2000 hours at 135° C.,[6],81.8%
same,Yellowness index after 2000 hours at 135° C.,[6],14.3
Cc1cc(CCC(=O)OCCOCCOCCOC(=O)CCc2cc(C)c(O)c(C(C)(C)C)c2)cc(C(C)(C)C)c1O [Irganox ®245],Impact strength after 0 h,[8]; 0.05% stabilizer,132 KJ/m^2
same,Impact strength after 360 h,[8]; 0.05% stabilizer,111 KJ/m^2
same,Impact strength after 0 h,[8]; 0.10% stabilizer,135 KJ/m^2
same,Impact strength after 360 h,[8]; 0.10% stabilizer,114 KJ/m^2
"CC(C)(C)c1ccc(OP(Oc2ccc(C(C)(C)C)cc2C(C)(C)C)c2ccc(-c3ccc(P(Oc4ccc(C(C)(C)C)cc4C(C)(C)C)Oc4ccc(C(C)(C)C)cc4C(C)(C)C)cc3)cc2)c(C(C)(C)C)c1 [Sandostab ®P-EPQ, tetrakis(2,4-di-tert-butylphenyl)-4,4′-biphenylene diphosphonite]",Melt index after 5 extrusions,"[4]; 280° C., stabilizer 0.050% by weight",6.3
same,Melt index after 5 extrusions,"[4]; 320° C., stabilizer 0.050% by weight",23.9
same,Melt index after 5 extrusions,"[4]; 340° C., stabilizer 0.050% by weight",61.5
CC(C)(c1ccccc1)c1cc(-n2nc3ccccc3n2)c(O)c(C(C)(C)c2ccccc2)c1 [Tinuvin ®234],Yellowness index after 2500 h exposure to light,[9],17.8
CC(C)(C)CC(C)(C)c1cc(Cc2cc(C(C)(C)CC(C)(C)C)cc(-n3nc4ccccc4n3)c2O)c(O)c(-n2nc3ccccc3n2)c1 [Tinuvin ®360],Yellowness index after 2500 h exposure to light,[9],16.6
CCCCCCOc1ccc(-c2nc(-c3ccccc3)nc(-c3ccccc3)n2)c(O)c1 [Tinuvin ®1577],Yellowness index after 2500 h exposure to light,[9],11.2
